Legend:
WT STING [1] = target: T1, WT STING (Homo sapiens, UniProt Q86WV6, H232R); assay: Digitonin assay using 293T wtSTING-FL reporter cells; type: cell-based; details: 293T wtSTING-FL cells; 30 minutes in Digitonin buffer, then 5 hours; ISRE firefly luciferase reporter; 8-point dose-response curve; read-out: Digitonin assay EC50 (μmol · l^−1) WT STING
Source text: ISRE Reporter Plasmid (pGL64.27-4xISRE)
Two complementary oligonucleotides of the sequence […] […] […] […] […] The oligonucleotides were mixed in equal molar amounts, hybridized, and cleaved by restriction endonucleases HindIII (cat. #. R0104S, NEB, Ipswich, USA) and BglII (cat. #R0144S, NEB, Ipswich, USA). Ultimately, they were ligated into plasmid pGL4.27 (cat. #E6651, Promega, Madison, USA) linearized with the same enzymes. As result the sequence with four ISRE sites was placed upstream of the minimum promoter of firefly luciferase reporter gene.
After 5 minutes incubation at room temperature (RT), 250 μL of the mixture was added dropwise to the cells in one well. Cells were incubated 36 hours at 37° C. with 5% CO2, and then detached with 0.05% Trypsin and 0.22 g/L EDTA (both cat. #L0941, Biowest, Riverside, USA).
Transfected cells were seeded onto poly-D-lysine coated six well plates at density 50,000 cells per 1 cm^2 in DMEM medium with high glucose containing 10% heat inactivated FBS, 30 g/mL blasticidin (cat. #ant-bl-05, InvivoGen, San Diego, USA), 0.06 mg/ml Penicillin G and 0.1 mg/ml Streptomycin Sulfate (both cat. #. L0018, Biowest, Riverside, USA). The medium was replenished every 3-4 days until visible colonies of cells resistant to blasticidin were formed.
Blasticidin resistant cells stably expressing WT STING were further transfected with […] plasmid following the same procedure as described above. […] Homogeneous culture of stably double transfected cells was prepared by limiting dilution of cells in 96 well plates and wells with cells were selected that originated from a single cell.
The medium was removed next day and three fold serial dilutions of compounds in Digitonin buffer containing 50 mmol·l^−1 HEPES (cat. #H3375, Sigma Aldrich, Czech Republic) pH 7.0, 100 mmol·l^−1 KCl, 3 mmol·l^−1 MgCl2, 0.1 mmol·l^−1 DTT (cat. #D0632, Sigma Aldrich, Czech Republic), 85 mmol·l^−1 Sucrose (cat. #S7903, Sigma Aldrich, Czech Republic), 0.2% BSA (cat. #A2153, Sigma Aldrich, Czech Republic), 1 mmol·l^−1 ATP (cat. #A1852, Sigma Aldrich, Czech Republic), 0.1 mmol·l^−1 GTP (cat. #G8877, Sigma Aldrich, Czech Republic), and 10 μg/mL Digitonin A (cat. #D141, Sigma Aldrich, Czech Republic) were added to the cells. The buffer was removed after 30 minutes incubation at 37° C. with 5% CO2, the cells were washed once with 100 μl of cultivation medium, and 100 μl of medium was added to each well. The plates with cells were incubated for 5 hours at 37° C. with 5% CO2, 50 μl of the medium was removed and 30 μl of ONE-Glo™ Luciferase Assay System reagent (cat. #E6120, Promega, Madison, USA) was added to each well. Luminescence was read on Synergy H1 (Biotek, Winooski, USA).
Target sequence in this assay (Q86WV6 whole entry H232R): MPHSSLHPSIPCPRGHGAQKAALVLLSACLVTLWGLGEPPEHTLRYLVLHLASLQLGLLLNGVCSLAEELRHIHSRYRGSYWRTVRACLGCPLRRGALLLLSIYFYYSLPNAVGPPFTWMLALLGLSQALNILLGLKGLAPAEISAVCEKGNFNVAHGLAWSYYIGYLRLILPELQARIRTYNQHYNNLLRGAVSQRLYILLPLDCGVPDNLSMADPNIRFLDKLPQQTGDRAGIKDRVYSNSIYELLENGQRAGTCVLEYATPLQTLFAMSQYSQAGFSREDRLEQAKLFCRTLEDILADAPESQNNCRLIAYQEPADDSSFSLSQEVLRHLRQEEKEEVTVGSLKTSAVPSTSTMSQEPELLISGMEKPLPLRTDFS

WT STING [2] = target: T1, WT STING; assay: Differential Scanning Fluorimetry with WT STING; type: binding; parameters: truncated human WT STING or AQ STING (amino acid residues 140-343); 8xHis (N, cleaved yes); SUMO (N, cleaved yes); made in house; host or cells: E. coli Rosetta-gami B (DE3); details: thermal shift vs STING apoprotein, 150 μM CDN, 0.1 mg/ml truncated human WT STING, SYPRO Orange; for ΔTm at 150 µM: read-out: DSF ΔTm (° C.) WT STING
Description: (§1) WT STING and AQ STING Proteins
(§2) Purified PCR products were cleaved with restriction enzymes BamHI (cat. #R0136S, NEB, Ipswich, USA) and NotI (cat. #R0189S, NEB, Ipswich, USA) and cloned into the pSUMO vector linearized with the identical enzymes.
(§3) The resin was poured into a chromatography column, washed with 50 ml buffer A (50 mmol·l^−1 TrisCl (pH 8.0), 800 mmol·l^−1 NaCl, 3 mmol·l^−1 β-mercaptol; 10% glycerol; 20 mmol·l^−1 imidazole) and 8-His-SUMO tagged STING proteins were eluted with 15 ml buffer A containing 300 mmol·l^−1 imidazole. […] Proteins were concentrated with Amicon® Ultra-15 10 K device (cat. #UFC901008, Merck Millipore, Billerica, USA) and flash frozen in liquid N2.
(§4) Differential Scanning Fluorimetry with WT STING and AQ STING
(§5) 20 μL solutions of the reaction mixtures were pipetted in triplicates into 96 well optical reaction plates and thermal denaturation of samples were performed on real time PCR cycler (LightCycler® 480 Instrument II—Roche, Basel, Switzerland). The first derivative of the thermal denaturation curves was performed to calculate denaturing temperatures of STING—CDN complexes and STING apoproteins. The thermal shift for each CDN was calculated by subtracting the average denaturing temperature of STING apoprotein from the average denaturing temperature of STING CDN complex.
Target sequence in this assay (Q86WV6 140-343 H232R): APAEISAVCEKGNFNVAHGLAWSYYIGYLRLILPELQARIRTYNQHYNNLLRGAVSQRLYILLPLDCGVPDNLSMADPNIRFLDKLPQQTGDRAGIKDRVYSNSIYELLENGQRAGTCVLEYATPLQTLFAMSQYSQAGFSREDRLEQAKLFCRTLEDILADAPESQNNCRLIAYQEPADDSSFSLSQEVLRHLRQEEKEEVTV

AQ STING (G230A-R293Q) = target: T2, AQ STING (G230A-R293Q) (Homo sapiens, UniProt Q86WV6, G230A/H232R/R293Q); assay: Differential Scanning Fluorimetry with AQ STING; type: binding; details: thermal shift vs STING apoprotein, 150 μM CDN, 0.1 mg/ml truncated human AQ STING, SYPRO Orange; for ΔTm at 150 µM: read-out: DSF ΔTm (° C.) AQ STING
T2 construct: truncated human WT STING or AQ STING (amino acid residues 140-343); 8xHis (N, cleaved yes); SUMO (N, cleaved yes); made in house; host or cells: E. coli Rosetta-gami B (DE3)
T2 sequence (Q86WV6 140-343 G230A/H232R/R293Q): as the sequence (Q86WV6 140-343 H232R) above, with G91A, R154Q counted along it
Description: as §1, §2, §3, §4, §5

Row | Compound | EC50 (WT STING [1]) | ΔTm at 150 µM (WT STING [2]) | ΔTm at 150 µM (AQ STING (G230A-R293Q)) | DSF ΔTm (° C.) WT STING (WT STING [2]) | DSF ΔTm (° C.) AQ STING (AQ STING (G230A-R293Q))
1 | Nc1nc2c(ncn2[C@@H]2O[C@@H]3OCP(=O)(O)O[C@H]4[C@@H](O)[C@H](n5ccc6c(N)ncnc65)O[C@@H]4COP(=O)(O)O[C@@H]2[C@@H]3O)c(=O)[nH]1 [Compound 47, (1R,6R,8R,9R,10S,15R,17R,18S)-17-(2-amino-6-oxo-6,9-dihydro-1H-purin-9-yl)-8-{4-amino-7H-pyrrolo[2,3-d]pyrimidin-7-yl}-3,9,12,18-tetrahydroxy-2,4,7,11,14,16-hexaoxa-3λ^5,12λ^5-diphosphatricyclo[13.2.1.0^6,10]octadecane-3,12-dione] | 100 nM | 3.4 °C | 10.8 °C |  | 
2 | Nc1nc2c(nnn2[C@@H]2O[C@@H]3OCP(=O)(O)O[C@H]4[C@@H](O)[C@H](n5cnc6c(N)ncnc65)O[C@@H]4COP(=O)(O)O[C@@H]2[C@@H]3O)c(=O)[nH]1 [Compound 57, (1R,6R,8R,9R,10S,15R,17R,18S)-17-{5-amino-7-oxo-3H,6H,7H-[1,2,3]triazolo[4,5-d]pyrimidin-3-yl}-8-(6-amino-9H-purin-9-yl)-3,9,12,18-tetrahydroxy-2,4,7,11,14,16-hexaoxa-3λ^5,12λ^5-diphosphatricyclo[13.2.1.0^6,10]octadecane-3,12-dione] | 20 nM | 14.8 °C | 22.2 °C |  | 
3 | Nc1ncnc2c1ncn2[C@@H]1O[C@@H]2COP(=O)(O)O[C@H]3[C@@H](O)[C@H](n4cnc5c(N)ncnc54)O[C@@H]3COP(=O)(O)O[C@H]2[C@H]1O [3′3′c-di-AMP, reference compound] | 300 nM |  |  | 2.6 °C | 9.3 °C
4 | Nc1nc2c(nnn2[C@@H]2O[C@@H]3OCP(=O)(O)O[C@@H]4[C@@H](OCP(=O)(O)O[C@@H]2[C@@H]3O)O[C@@H](n2cnc3c(N)ncnc32)[C@@H]4O)c(=O)[nH]1 [Compound 61, (1R,6R,8R,9R,10S,15R,17R,18S)-17-{5-amino-7-oxo-3H,6H,7H-[1,2,3]triazolo[4,5-d]pyrimidin-3-yl}-8-(6-amino-9H-purin-9-yl)-3,9,12,18-tetrahydroxy-2,5,7,11,14,16-hexaoxa-3λ^5,12λ^5-diphosphatricyclo[13.2.1.0^6,10]octadecane-3,12-dione] | 27 nM | 10 °C | 17.6 °C |  | 
5 | Nc1nc2c(ncn2[C@@H]2O[C@@H]3OCP(=O)(O)O[C@H]4[C@@H](O)[C@H](n5cnc6c(N)ncnc65)O[C@@H]4COP(=O)(O)O[C@@H]2[C@@H]3O)c(=O)[nH]1 [Compound 43, (1R,6R,8R,9R,10S,15R,17R,18S)-17-(2-amino-6-oxo-6,9-dihydro-1H-purin-9-yl)-8-(6-amino-9H-purin-9-yl)-3,9,12,18-tetrahydroxy-2,4,7,11,14,16-hexaoxa-3λ^5,12λ^5-diphosphatricyclo[13.2.1.0^6,10]octadecane-3,12-dione] | 5 nM | 8 °C | 16.6 °C |  | 
6 | Nc1nc2c(ncn2[C@@H]2C[C@@H]3COP(=O)(O)O[C@@H]4[C@@H](OCP(=O)(O)O[C@@H]2[C@@H]3O)O[C@@H](n2cnc3c(N)ncnc32)[C@@H]4O)c(=O)[nH]1 [Compound 36, (1S,6R,8R,9R,10S,15R,17R,18R)-17-(2-amino-6-oxo-6,9-dihydro-1H-purin-9-yl)-8-(6-amino-9H-purin-9-yl)-3,9,12,18-tetrahydroxy-2,5,7,11,13-pentaoxa-3λ^5,12λ^5-diphosphatricyclo[13.2.1.0^6,10]octadecane-3,12-dione] | 180 nM | 5.8 °C | 14.2 °C |  | 
7 | Nc1ncnc2c1ncn2[C@@H]1O[C@@H]2COP(=O)(O)O[C@@H]3[C@H](O)[C@@H](COCP(=O)(O)O[C@H]2[C@H]1O)O[C@H]3n1cnc2c(N)ncnc21 [Compound 31] | 12500 nM | 0.5 °C | 5.7 °C |  | 
8 | Nc1nc2c(ncn2[C@@H]2O[C@@H]3COP(=O)(O)O[C@@H]4[C@@H](OCP(=O)(O)O[C@@H]2[C@@H]3O)O[C@@H](n2cnc3c(N)ncnc32)[C@@H]4O)c(=O)[nH]1 [Compound 40, (1R,6R,8R,9R,10S,15R,17R,18R)-17-(2-amino-6-oxo-6,9-dihydro-1H-purin-9-yl)-8-(6-amino-9H-purin-9-yl)-3,9,12,18-tetrahydroxy-2,5,7,11,13,16-hexaoxa-3λ^5,12λ^5-diphosphatricyclo[13.2.1.0^6,10]octadecane-3,12-dione] | 20 nM | 10.8 °C | 18.7 °C |  | 
9 | Nc1ncc2ncn([C@@H]3O[C@@H]4COP(=O)(O)O[C@@H]5[C@H](O)[C@@H](OCP(=O)(O)O[C@H]4[C@H]3O)O[C@H]5n3cnc4c(=O)[nH]c(N)nc43)c2n1 [Compound 48, (1R,6R,8R,9R,10S,15R,17R,18S)-17-(2-amino-6-oxo-6,9-dihydro-1H-purin-9-yl)-8-(2-amino-9H-purin-9-yl)-3,9,12,18-tetrahydroxy-2,4,7,11,14,16-hexaoxa-3λ^5,12λ^5-diphosphatricyclo[13.2.1.0^6,10]octadecane-3,12-dione] | 170 nM | 3.9 °C | 11.6 °C |  | 
10 | Nc1nc2c(ncn2[C@@H]2O[C@@H]3OCP(=O)(O)O[C@H]4C[C@H](n5cnc6c(N)ncnc65)O[C@@H]4COP(=O)(O)O[C@@H]2[C@@H]3O)c(=O)[nH]1 [Compound 55, (1R,6R,8R,10S,15R,17R,18S)-17-(2-amino-6-oxo-6,9-dihydro-1H-purin-9-yl)-8-(6-amino-9H-purin-9-yl)-3,12,18-trihydroxy-2,4,7,11,14,16-hexaoxa-3λ^5,12λ^5-diphosphatricyclo[13.2.1.0^6,10]octadecane-3,12-dione] | 10 nM | 15.2 °C | 22.9 °C |  | 
11 | 1R,6R,8R,9R,10R,15R,17R,18S)-8,17-bis(6-amino-9H-purin-9-yl)-9-fluoro-3,12,18-trihydroxy-2,4,7,11,14,16-hexaoxa-3λ^5,12λ^5-diphosphatricyclo[13.2.1.0^6,^10]octadecane-3,12-dione [Compound 34] | 700 nM |  |  | 2.6 °C | 8.5 °C

Source: US11203610B2, “2′3′ cyclic dinucleotides with phosphonate bond activating the sting adaptor protein” (INSTITUTE OF ORGANIC CHEMISTRY AND BIOCHEMISTRY ASCR, V.V.I., priority 2017, dated 2021)
